Reference: patent publication US10897898B2, “Herbicidal composition comprising cinmethylin and acetochlor or pretilachlor” (BASF Agro B.V., priority 2015, dated 2021)

Experiments:
Format in all cases: in vivo
Conditions in all cases: 20 DAT
Polygonum convolvulus = assay: greenhouse pre-emergence herbicidal activity on POLCO
Protocol: (§1) The test plants have been seeded, separately for each species, in plastic containers in sandy loamy soil containing 5% of organic matter.
(§2) The containers were irrigated gently to promote germination and growth and subsequently covered with transparent plastic hoods until the plants had rooted.
(§3) The plants have been cultivated due to their individual requirements at 10-25° C. and 20-35° C. The plants were irrigated due to their necessity.
(§4) The racemic mixture (±)-2-exo-(2-Methylbenzyloxy)-1-methyl-4-isopropyl-7-oxabicyclo[2.2.1]heptane was used as herbicide A and formulated as emulsifiable concentrates with an active ingredient concentration of 50 g/l, 100 g/l or 750 g/l respectively.
(§5) Acetochlor (herbicide B.1) was used as an encapsulated (CS) formulation having an active ingredient concentration of 400 g/l+67 g/l dichlormid as safener.
(§6) Pretilachlor (herbicide B.2) was used as emulsifiable concentrate (EC) formulation having an active ingredient concentration of 120 g/l.
(§7) In the following experiments, the herbicidal activity for the individual herbicidal compositions (solo and mixture applications) was assessed 20 days after treatment (DAT).
(§8) The evaluation for the damage on undesired weeds caused by the chemical compositions was carried out using a scale from 0 to 100%, compared to the untreated control plants. Here, 0 means no damage and 100 means complete destruction of the plants.
(§9) E=X+Y−(X·Y/100) where X=effect in percent using herbicide A at an application rate a; • Y=effect in percent using herbicide B at application rate b; • E=expected effect (in %) of herbicide A+herbicide B at application rates a+b.
(§10) The value E corresponds to the effect (plant damage or injury) which is to be expected if the activity of the individual compounds is additive. If the observed effect is higher than the value E calculated according to the Colby equation, a synergistic effect is present.
(§11) Tables 1 and 2 below relate to the herbicidal activity, in greenhouse trials, of the individual actives and the combinations applied at different rates and ratios, in pre-emergence application at 20 days after treatment (DAT).

Lolium multiflorum = assay: greenhouse pre-emergence herbicidal activity on LOLMU
Protocol: as §1, §2, §3, §4, §5, §6, §7, §8, §9, §10, §11

Abutilon theophrasti = assay: greenhouse pre-emergence herbicidal activity on ABUTH
Protocol: as §1, §2, §3, §4, §5, §6, §7, §8, §9, §10, §11

Chenopodium album = assay: greenhouse pre-emergence herbicidal activity on CHEAL
Protocol: as §1, §2, §3, §4, §5, §6, §7, §8, §9
(§12) The value E corresponds to the effect (plant damage or injury) which is to be expected if the activity of the individual compounds is additive. If the observed effect is higher than the value E calculated according to the Colby equation, a synergistic effect is present. […]

Stellaria media = assay: greenhouse pre-emergence herbicidal activity on STEME
Protocol: as §1, §2, §3, §4, §5, §6, §7, §8, §9, §10, §11

Anthemis arvensis = assay: greenhouse pre-emergence herbicidal activity on ANTAR
Protocol: as §1, §2, §3, §4, §5, §6, §7, §8, §9, §10, §11

Avena fatua = assay: greenhouse pre-emergence herbicidal activity on AVEFA
Protocol: as §1, §2, §3, §4, §5, §6, §7, §8, §9, §10, §11

Alopecurus myosuroides = assay: greenhouse pre-emergence herbicidal activity on ALOMY
Protocol: as §1, §2, §3, §4, §5, §6, §7, §8, §9, §10, §11

Sorghum halepense = assay: greenhouse pre-emergence herbicidal activity on SORHA
Protocol: as §1, §2, §3, §4, §5, §6, §7, §8, §9, §10, §11

Geranium dissectum = assay: greenhouse pre-emergence herbicidal activity on GERDI
Protocol: as §1, §2, §3, §4, §5, §6, §7, §8, §9, §10, §11

Setaria viridis = assay: greenhouse pre-emergence herbicidal activity on SETVI
Protocol: as §1, §2, §3, §4, §5, §6, §7, §8, §9, §10, §11

Echinochloa crus-galli = assay: greenhouse pre-emergence herbicidal activity on ECHCG
Protocol: as §1, §2, §3, §4
Acetochlor (herbicide B.1) was used as an encapsulated (CS) formulation having an active ingredient concentration of 400 g/l+67 g/l dichlormid as safener. […]
In the following experiments, the herbicidal activity for the individual herbicidal compositions (solo and mixture applications) was assessed 20 days after treatment (DAT). […]
as §12

CCOCN(C(=O)CCl)c1c(C)cccc1CC [acetochlor, 2-chloro-N-(ethoxymethyl)-N-(2-ethyl-6-methylphenyl)acetamide]
herbicidal activity, solo application acetochlor (Polygonum convolvulus; 125 g ai/ha): 0% | herbicidal activity, solo application acetochlor (Polygonum convolvulus; 250 g ai/ha): 20% | herbicidal activity, solo application acetochlor (Polygonum convolvulus; 500 g ai/ha): 40% | herbicidal activity, solo application acetochlor (Lolium multiflorum; 63 g ai/ha): 70% | herbicidal activity, solo application acetochlor (Lolium multiflorum; 250 g ai/ha): 95% | herbicidal activity, solo application acetochlor (Abutilon theophrasti; 63 g ai/ha): 0% | herbicidal activity, solo application acetochlor (Abutilon theophrasti; 125 g ai/ha): 0% | herbicidal activity, solo application acetochlor (Chenopodium album; 63 g ai/ha): 40% | herbicidal activity, solo application acetochlor (Stellaria media; 250 g ai/ha): 98% | herbicidal activity, solo application acetochlor (Anthemis arvensis; 63 g ai/ha): 35% | herbicidal activity, solo application acetochlor (Anthemis arvensis; 125 g ai/ha): 70% | herbicidal activity, solo application acetochlor (Anthemis arvensis; 250 g ai/ha): 80% | herbicidal activity, solo application acetochlor (Anthemis arvensis; 500 g ai/ha): 90% | herbicidal activity, solo application acetochlor (Avena fatua; 63 g ai/ha): 20% | herbicidal activity, solo application acetochlor (Avena fatua; 125 g ai/ha): 70% | herbicidal activity, solo application acetochlor (Avena fatua; 250 g ai/ha): 70% | herbicidal activity, solo application acetochlor (Avena fatua; 500 g ai/ha): 80% | herbicidal activity, solo application acetochlor (Alopecurus myosuroides; 63 g ai/ha): 50%

CCCOCCN(C(=O)CCl)c1c(CC)cccc1CC [pretilachlor, 2-chloro-N-(2,6-diethylphenyl)-N-(2-propoxyethyl)acetamide]
herbicidal activity, solo application pretilachlor (Polygonum convolvulus; 63 g ai/ha): 15% | herbicidal activity, solo application pretilachlor (Polygonum convolvulus; 125 g ai/ha): 20% | herbicidal activity, solo application pretilachlor (Lolium multiflorum; 31.3 g ai/ha): 0% | herbicidal activity, solo application pretilachlor (Lolium multiflorum; 63 g ai/ha): 0% | herbicidal activity, solo application pretilachlor (Lolium multiflorum; 125 g ai/ha): 25% | herbicidal activity, solo application pretilachlor (Sorghum halepense; 63 g ai/ha): 20% | herbicidal activity, solo application pretilachlor (Sorghum halepense; 125 g ai/ha): 30% | herbicidal activity, solo application pretilachlor (Sorghum halepense; 250 g ai/ha): 55% | herbicidal activity, solo application pretilachlor (Chenopodium album; 31.3 g ai/ha): 30% | herbicidal activity, solo application pretilachlor (Geranium dissectum; 31.3 g ai/ha): 0% | herbicidal activity, solo application pretilachlor (Geranium dissectum; 63 g ai/ha): 0% | herbicidal activity, solo application pretilachlor (Geranium dissectum; 125 g ai/ha): 20% | herbicidal activity, solo application pretilachlor (Stellaria media; 31.3 g ai/ha): 30% | herbicidal activity, solo application pretilachlor (Stellaria media; 63 g ai/ha): 25% | herbicidal activity, solo application pretilachlor (Stellaria media; 125 g ai/ha): 30% | herbicidal activity, solo application pretilachlor (Setaria viridis; 31.3 g ai/ha): 25% | herbicidal activity, solo application pretilachlor (Setaria viridis; 63 g ai/ha): 50% | herbicidal activity, solo application pretilachlor (Setaria viridis; 125 g ai/ha): 60% | herbicidal activity, solo application pretilachlor (Anthemis arvensis; 31.3 g ai/ha): 20% | herbicidal activity, solo application pretilachlor (Anthemis arvensis; 63 g ai/ha): 20% | herbicidal activity, solo application pretilachlor (Anthemis arvensis; 125 g ai/ha): 30% | herbicidal activity, solo application pretilachlor (Anthemis arvensis; 250 g ai/ha): 30% | herbicidal activity, solo application pretilachlor (Echinochloa crus-galli; 31.3 g ai/ha): 20% | herbicidal activity, solo application pretilachlor (Avena fatua; 63 g ai/ha): 15% | herbicidal activity, solo application pretilachlor (Avena fatua; 125 g ai/ha): 20% | herbicidal activity, solo application pretilachlor (Avena fatua; 250 g ai/ha): 25% | herbicidal activity, solo application pretilachlor (Alopecurus myosuroides; 63 g ai/ha): 40% | herbicidal activity, solo application pretilachlor (Alopecurus myosuroides; 125 g ai/ha): 40%

(±)-2-exo-(2-Methylbenzyloxy)-1-methyl-4-isopropyl-7-oxabicyclo[2.2.1]heptane [herbicide A]
herbicidal activity, solo application herbicide A (Polygonum convolvulus; 62.5 g ai/ha): 0% | herbicidal activity, solo application herbicide A (Polygonum convolvulus; 125 g ai/ha): 0% | herbicidal activity, solo application herbicide A (Polygonum convolvulus; 250 g ai/ha): 15% | herbicidal activity, solo application herbicide A (Lolium multiflorum; 31.25 g ai/ha): 60% | herbicidal activity, solo application herbicide A (Lolium multiflorum; 62.5 g ai/ha): 75% | herbicidal activity, solo application herbicide A (Lolium multiflorum; 125 g ai/ha): 85% | herbicidal activity, solo application herbicide A (Abutilon theophrasti; 31.25 g ai/ha): 30% | herbicidal activity, solo application herbicide A (Abutilon theophrasti; 62.5 g ai/ha): 60% | herbicidal activity, solo application herbicide A (Sorghum halepense; 62.5 g ai/ha): 80% | herbicidal activity, solo application herbicide A (Sorghum halepense; 125 g ai/ha): 95% | herbicidal activity, solo application herbicide A (Sorghum halepense; 250 g ai/ha): 98% | herbicidal activity, solo application herbicide A (Chenopodium album; 31.25 g ai/ha): 40% | herbicidal activity, solo application herbicide A (Geranium dissectum; 31.25 g ai/ha): 50% | herbicidal activity, solo application herbicide A (Geranium dissectum; 62.5 g ai/ha): 60% | herbicidal activity, solo application herbicide A (Geranium dissectum; 125 g ai/ha): 60% | herbicidal activity, solo application herbicide A (Stellaria media; 31.25 g ai/ha): 30% | herbicidal activity, solo application herbicide A (Stellaria media; 62.5 g ai/ha): 30% | herbicidal activity, solo application herbicide A (Stellaria media; 125 g ai/ha): 40% | herbicidal activity, solo application herbicide A (Setaria viridis; 31.25 g ai/ha): 90% | herbicidal activity, solo application herbicide A (Setaria viridis; 62.5 g ai/ha): 98% | herbicidal activity, solo application herbicide A (Setaria viridis; 125 g ai/ha): 98% | herbicidal activity, solo application herbicide A (Anthemis arvensis; 31.25 g ai/ha): 0% | herbicidal activity, solo application herbicide A (Anthemis arvensis; 62.5 g ai/ha): 0% | herbicidal activity, solo application herbicide A (Anthemis arvensis; 125 g ai/ha): 0% | herbicidal activity, solo application herbicide A (Anthemis arvensis; 250 g ai/ha): 30% | herbicidal activity, solo application herbicide A (Echinochloa crus-galli; 31.25 g ai/ha): 98% | herbicidal activity, solo application herbicide A (Avena fatua; 31.25 g ai/ha): 0% | herbicidal activity, solo application herbicide A (Avena fatua; 62.5 g ai/ha): 0% | herbicidal activity, solo application herbicide A (Avena fatua; 125 g ai/ha): 25% | herbicidal activity, solo application herbicide A (Avena fatua; 250 g ai/ha): 35% | herbicidal activity, solo application herbicide A (Alopecurus myosuroides; 31.25 g ai/ha): 98% | herbicidal activity, solo application herbicide A (Alopecurus myosuroides; 62.5 g ai/ha): 98% | herbicidal activity, solo application herbicide A (Alopecurus myosuroides; 125 g ai/ha): 98%
